In brackets after ≈: the same amount, converted by molar mass. Several values for one entry are separate records, joined by “and”; a condition that tells them apart may be missing. Equal entries are not always repeated. Where two headings read alike, the source gives them in different places.
Assays:
[1] = system: S. aureus clinical isolates; assay: microbe, parasite or virus in culture; type: cell-based; settings: Staphylococcus aureus, read-out: MIC
[2] = system: S. aureus USA300 (MRSA) BAA1556, S. aureus (VRSA) ECL2963646, S. aureus Mu50 (VISA) ATCC 700699; assay: S. aureus dermal infection model; type: in vivo, ICR mice; settings: for Log CFU/Skin: 2% treatment, individual animals
Experimental: The testing strains, S. aureus USA300 (MRSA) BAA1556, S. aureus (VRSA) ECL2963646, and S. aureus Mu50 (VISA) ATCC 700699 were obtained from frozen stocks and thawed at room temperature. Next, an aliquot of 0.2 mL from each stock was transferred to 20 mL BHI broth and incubated at 37 °C with shaking (120 rpm) for 8 hours. Cells in 20 mL culture were pelleted by centrifugation, 3,500g for 15 minutes, and then resuspended in 10 mL cold PBS, then cells were diluted in PBS to obtain the inoculum sizes of 1×10^5 or 1× 10^6 CFU/mL, based on the testing strain’s virulence. In all cases, the actual colony counts were determined by plating dilutions in at least 3 replicates onto MHBII agar plates followed by 24 hours’ incubation and colony counting.
For dermal infections, groups of 5 female ICR mice weighing 24 ± 4 g, provided by BioLasco Taiwan (under a Charles River Laboratories Technology Licensee), were used. Animals were acclimated for 3 days prior to use and were confirmed to be in good health. Prior to infection, animals were anesthetized with etomidate-lipuro emulsion (20 mg /10 mL) at 20 mg/kg by IV injection, and then the fur on the back was removed by an electric shaver, and the epidermal layer was disrupted with an abrasive paper according to the protocol developed by Kugelberg and colleagues. Mice were inoculated topically on the wound area with testing strain suspension, 5 μL/mouse. The target inoculation densities were 1×10^5 or 1× 10^6 CFU/mL, based on the corresponding strain’s virulence. Following infection, animals were housed separately. […] Test articles were administered topically (20 μL/mouse) twice daily. One no-treatment group was euthanized at 1 hour after infection for initial bacterial counts, and the other treatment groups were dosed twice daily with the test compounds and sacrificed either at 25 hours or at 73 hours postinfection. Animals were euthanized with CO2 asphyxiation and the infected skin, a 2 cm^2 area, was excised. The skin samples of the wound infection (around 2 cm^2 areas) were then homogenized in 1 mL PBS (pH 7.4) with a polytron homogenizer. A 0.1 mL aliquot of each homogenate was used for serial 10-fold dilutions and plated onto MHBII agar plates for bacterial enumeration. Statistical significance (P <0.05) was assessed with 1-way ANOVA followed by Dunnett’s method. A significant (P <0.05) decrease in the bacterial counts of the treated animals compared with the vehicle control group was considered significant antimicrobial activity.

Cc1[nH]c(C(=O)Nc2nc3c(OCc4ccccc4)cc(C(=O)O)cc3s2)c(Cl)c1Cl [ULD2]
MIC ([1]; MRSA, S. aureus IHMA 1622252, MRSA / VSSA): 0.5 µg/mL (≈ 1.05 µM)
MIC ([1]; MRSA, S. aureus IHMA 1622527, MRSA / VSSA): 0.25 µg/mL (≈ 0.525 µM)
MIC ([1]; MRSA, S. aureus IHMA 1666371, MRSA / VSSA): 0.25 µg/mL (≈ 0.525 µM)
MIC ([1]; MRSA, S. aureus IHMA 1695391, MRSA / VSSA): 0.12 µg/mL (≈ 0.252 µM)
MIC ([1]; MRSA, S. aureus IHMA 1703428, MRSA / VSSA): 0.5 µg/mL (≈ 1.05 µM)
MIC ([1]; MRSA, S. aureus IHMA 1720350, MRSA / VSSA): 0.5 µg/mL (≈ 1.05 µM)
MIC ([1]; MRSA, S. aureus IHMA 1732989, MRSA / VSSA): 0.5 µg/mL (≈ 1.05 µM)
MIC ([1]; MRSA, S. aureus IHMA 1742231, MRSA / VSSA): 0.12 µg/mL (≈ 0.252 µM)
MIC ([1]; MRSA, S. aureus IHMA 1766357, MRSA / VSSA): 0.12 µg/mL (≈ 0.252 µM)
MIC ([1]; MSSA / NRS 12 / VISA, S. aureus IHMA 1308244, NRS12, MSSA / VISA): 0.5 µg/mL (≈ 1.05 µM)
MIC ([1]; MSSA / NRS 13 / VISA, S. aureus IHMA 1308245, NRS13, MSSA / VISA): 0.5 µg/mL (≈ 1.05 µM)
MIC ([1]; MSSA / NRS 14 / VISA, S. aureus IHMA 1308246, NRS14, MSSA / VISA): 1 µg/mL (≈ 2.1 µM)
MIC ([1]; MSSA / NRS 17 / VISA, S. aureus IHMA 1308247, NRS17, MSSA / VISA): 1 µg/mL (≈ 2.1 µM)
MIC ([1]; MSSA / NRS 28 / VISA, S. aureus IHMA 1308249, NRS28, MSSA / VISA): 1 µg/mL (≈ 2.1 µM)
MIC ([1]; MSSA / NRS 52, S. aureus IHMA 1308252, NRS52, MSSA / VSSA* (*Expected VAN intermediate, confirmed VAN susceptible twice), test date 2018-11-07): 0.12 µg/mL (≈ 0.252 µM)
MIC ([1]; MSSA / USA100 / VRSA, S. aureus IHMA 672236, VRS6, MSSA / VRSA, USA100): 0.12 µg/mL (≈ 0.252 µM)
MIC ([1]; MSSA, S. aureus IHMA 1563826, MSSA / VSSA): 0.25 µg/mL (≈ 0.525 µM)
MIC ([1]; MSSA, S. aureus IHMA 1565492, MSSA / VSSA): 0.12 µg/mL (≈ 0.252 µM)
MIC ([1]; MSSA, S. aureus IHMA 1569499, MSSA / VSSA): 0.5 µg/mL (≈ 1.05 µM)
MIC ([1]; MSSA, S. aureus IHMA 1569754, MSSA / VSSA): 0.12 µg/mL (≈ 0.252 µM)
MIC ([1]; MSSA, S. aureus IHMA 1574202, MSSA / VSSA): 0.25 µg/mL (≈ 0.525 µM)
MIC ([1]; MSSA, S. aureus IHMA 1575652, MSSA / VSSA): 0.25 µg/mL (≈ 0.525 µM)
MIC ([1]; MSSA, S. aureus IHMA 1575779, MSSA / VSSA): 0.5 µg/mL (≈ 1.05 µM)
MIC ([1]; MSSA, S. aureus IHMA 1576329, MSSA / VSSA): 0.5 µg/mL (≈ 1.05 µM)
MIC ([1]; MSSA, S. aureus IHMA 1577800, MSSA / VSSA): 0.25 µg/mL (≈ 0.525 µM)
MIC ([1]; MSSA, S. aureus IHMA 1578560, MSSA / VSSA): 0.5 µg/mL (≈ 1.05 µM)
MIC ([1]; MSSA, S. aureus IHMA 1580233, MSSA / VSSA): 0.12 µg/mL (≈ 0.252 µM)
MIC ([1]; MSSA, S. aureus IHMA 1580925, MSSA / VSSA): 0.25 µg/mL (≈ 0.525 µM)
MIC ([1]; MSSA, S. aureus IHMA 1580955, MSSA / VSSA): 0.5 µg/mL (≈ 1.05 µM)
MIC ([1]; MSSA, S. aureus IHMA 1582586, MSSA / VSSA): 0.5 µg/mL (≈ 1.05 µM)
MIC ([1]; MSSA, S. aureus IHMA 1582691, MSSA / VSSA): 0.25 µg/mL (≈ 0.525 µM)
MIC ([1]; MSSA, S. aureus IHMA 1584230, MSSA / VSSA): 0.5 µg/mL (≈ 1.05 µM)
MIC ([1]; MSSA, S. aureus IHMA 1587279, MSSA / VSSA): 0.5 µg/mL (≈ 1.05 µM)
MIC ([1]; MSSA, S. aureus IHMA 1591459, MSSA / VSSA): 0.25 µg/mL (≈ 0.525 µM)
MIC ([1]; MSSA, S. aureus IHMA 1592749, MSSA / VSSA): 0.5 µg/mL (≈ 1.05 µM)
MIC ([1]; MSSA, S. aureus IHMA 1592751, MSSA / VSSA): 0.25 µg/mL (≈ 0.525 µM)
MIC ([1]; MSSA, S. aureus IHMA 1594297, MSSA / VSSA): 1 µg/mL (≈ 2.1 µM)
MIC ([1]; MSSA, S. aureus IHMA 1597120, MSSA / VSSA): 0.5 µg/mL (≈ 1.05 µM)
MIC ([1]; MSSA, S. aureus IHMA 1597125, MSSA / VSSA): 0.5 µg/mL (≈ 1.05 µM)
MIC ([1]; MSSA, S. aureus IHMA 1599157, MSSA / VSSA): 0.5 µg/mL (≈ 1.05 µM)
MIC ([1]; MSSA, S. aureus IHMA 1599506, MSSA / VSSA): 0.12 µg/mL (≈ 0.252 µM)
MIC ([1]; MSSA, S. aureus IHMA 1602078, MSSA / VSSA): 0.5 µg/mL (≈ 1.05 µM)
MIC ([1]; MSSA, S. aureus IHMA 1604586, MSSA / VSSA): 0.25 µg/mL (≈ 0.525 µM)
MIC ([1]; MSSA, S. aureus IHMA 1604609, MSSA / VSSA): 0.5 µg/mL (≈ 1.05 µM)
MIC ([1]; MSSA, S. aureus IHMA 1609919, MSSA / VSSA): 0.25 µg/mL (≈ 0.525 µM)
MIC ([1]; MSSA, S. aureus IHMA 1622864, MSSA / VSSA): 0.25 µg/mL (≈ 0.525 µM)
MIC ([1]; MSSA, S. aureus IHMA 1626392, MSSA / VSSA): 0.5 µg/mL (≈ 1.05 µM)
MIC ([1]; MSSA, S. aureus IHMA 1713793, MSSA / VSSA): 0.5 µg/mL (≈ 1.05 µM)
Log CFU/Skin ([2]; Staphylococcus aureus ECL 2963646 (VRSA)): 5.96 Log CFU/Skin and 5.93 Log CFU/Skin and 5.51 Log CFU/Skin and 5.91 Log CFU/Skin and 5.45 Log CFU/Skin
Log CFU/Skin ([2]; Staphylococcus aureus Mu50 ATCC 700699 (VISA)): 4.76 Log CFU/Skin and 5.44 Log CFU/Skin and 5.93 Log CFU/Skin and 4.96 Log CFU/Skin and 5.73 Log CFU/Skin
Log CFU/Skin ([2]; Staphylococcus aureus USA300 (MRSA)): 4.14 Log CFU/Skin and 4.81 Log CFU/Skin and 5.33 Log CFU/Skin and 6.64 Log CFU/Skin and 5.97 Log CFU/Skin
antibacterial activity after topical application ([2]; mouse skin infection, ointment twice daily, MRSA, VISA, VRSA, comparable to mupirocin, in words): potent antibacterial activity
